# Test results published in patent US20230124492A1, “COMPOSITIONS AND METHODS FOR SUBSTITUTED 7-(PIPERAZIN-1-YL)PYRAZOLO[1,5-A]PYRIMIDINE ANALOGS AS INHIBITORS OF KRAS” (The Board of Regents of the University of Texas System, priority 2019, published 2023).
# “Also recorded” adds a separate entry of the source.
# Legend:
# GTP-/GDP-bound HRAS = GTP-/GDP-bound HRAS (Homo sapiens, UniProt P01112); assay: Binding of lead compound to GTP-/GDP-bound HRAS
# KRAS effector binding = KRAS effector binding (Homo sapiens, UniProt P01116); assay: Effector (Raf) binding to KRAS; format: biochemical
# Sequence of KRAS effector binding (P01116 1-188 isoform P01116-2): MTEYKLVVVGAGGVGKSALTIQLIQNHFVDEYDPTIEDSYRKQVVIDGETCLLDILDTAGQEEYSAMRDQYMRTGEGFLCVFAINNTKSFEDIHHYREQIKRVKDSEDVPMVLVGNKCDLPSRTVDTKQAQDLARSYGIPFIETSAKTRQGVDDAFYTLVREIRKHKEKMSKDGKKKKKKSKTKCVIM
# cancer cells = assay: Proliferation of cancer cells; format: cell-based
# GTP-/GDP-bound NRAS = GTP-/GDP-bound NRAS (Homo sapiens, UniProt P01111); assay: Binding of lead compound to GTP-/GDP-bound NRAS
# Sequence of GTP-/GDP-bound NRAS (P01111 whole entry): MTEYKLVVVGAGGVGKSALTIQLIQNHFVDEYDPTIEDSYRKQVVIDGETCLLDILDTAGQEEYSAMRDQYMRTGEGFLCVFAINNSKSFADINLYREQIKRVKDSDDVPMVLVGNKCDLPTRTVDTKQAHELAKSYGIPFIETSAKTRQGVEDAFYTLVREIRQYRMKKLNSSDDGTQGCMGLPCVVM
# [1] = test system: KRAS-mediated MAPK signaling; assay: KRAS-mediated MAPK signaling; format: cell-based
# GTP-KRAS = GTP-KRAS (Homo sapiens, UniProt P01116); assay: Binding of lead compound to GTP-KRAS; settings: active GTP-bound KRAS
# Sequence of GTP-KRAS (P01116 1-188 isoform P01116-2): as the sequence (P01116 1-188 isoform P01116-2) above
# KRAS = KRAS (Homo sapiens, UniProt P01116, G12D); assay: Microscale thermophoresis (MST) binding affinity to KRAS (Table 1); settings: 100 nM labeled KRAS, read-out: kD (dissociation constant)
# Sequence of KRAS (P01116 whole entry G12D): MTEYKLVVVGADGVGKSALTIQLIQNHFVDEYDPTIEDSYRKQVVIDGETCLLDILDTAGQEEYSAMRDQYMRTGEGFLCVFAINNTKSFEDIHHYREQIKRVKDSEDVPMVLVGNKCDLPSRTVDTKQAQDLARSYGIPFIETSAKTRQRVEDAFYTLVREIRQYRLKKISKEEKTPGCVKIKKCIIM
# Experimental: Measurement of compound binding affinity to KKRAS using microscale thermophoresis (MST). MST is based on the movement of molecules in response to temperature gradient. […] KRAS was buffer-exchanged in the labeling buffer (40 mM HEPES, pH 7.5, 5 mM MgCl2, and 500 mM NaCl) using a spin column (provided in the kit) The concentration of the eluted protein was adjusted (10 to 20 μM) and 2-3 fold concentration of the dye (in labeling buffer) was added (200 μL final volume), The solution was incubated for 30 minutes at room temperature in the dark. Labeled KRAS was purified using the column provided in the kit or MST measurements, 16 point serial dilutions of ligands were made in MST Assay Buffer (40 mM HEPES, pH 7.5, 5 mM MgCl2, 100 mM NaCl+0.05% Tween-20+2-4% DMSO) and added to 100 nM KRAS. The solutions were loaded in capillaries and measurements were done using 20% LED power and 40% MST power. The data were fit in Igor Pro using Hill equation or the function in the instrument software.
# Microscale thermophoresis (MST) assays were used to measure the affinity of lead compound analogs for KRAS. In a typical experiment, 100 nM KRAS labeled with a dye amine-reactive red NT-647 from NanoTemper) was mixed with different concentrations of ligand and incubated in a binding buffer (40 mM HEPES, pH 7.5, 5 mM MgCl2, 150 mM NaCl, 0.05% polysorbate 20, and 2% DMSO) at room temperature for 10 min before being loaded into a capillary. Thermophoresis is carried out and dissociation constant calculated by monitoring changes in fluorescence intensity. A monolith NT.115 Reader from NanoTemper can be used for MST experiments, with 40% MST and 20% LED power.
# Dissociation constants (IQ)) calculated from the thermophoresis results of selected compounds according to the present disclosure are presented in Table 1 below.
# Note: For FIGS. 1A-H 1 (as well as one of the curves in FIGS. 2A-I), dissociation constant (Kd) was determined using either Microscale Thermophoresis (MST) or Intrinsic Fluorescence (IF) assay. MST assay uses fluorescence to monitor movement of molecules in response to temperature gradient created by infrared laser.
# GDP-KRAS = GDP-KRAS (Homo sapiens, UniProt P01116); assay: Binding of lead compound to GDP-KRAS (inactive KRAS); settings: GDP-bound
# Sequence of GDP-KRAS (P01116 1-188 isoform P01116-2): as the sequence (P01116 1-188 isoform P01116-2) above
# Sequence of GTP-/GDP-bound HRAS (P01112 whole entry): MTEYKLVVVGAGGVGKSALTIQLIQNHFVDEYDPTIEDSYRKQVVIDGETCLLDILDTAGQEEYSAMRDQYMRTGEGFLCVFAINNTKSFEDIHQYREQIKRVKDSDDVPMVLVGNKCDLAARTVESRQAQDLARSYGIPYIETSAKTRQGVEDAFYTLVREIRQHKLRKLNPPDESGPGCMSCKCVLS
compound,measurement,setting,value
Cc1nn2c(N3CCN(CCO)CC3)cc(-c3ccccc3)nc2c1-c1ccccc1 [Compound C1],Affinity for GTP-/GDP-bound HRAS,GTP-/GDP-bound HRAS,much weaker affinity; also recorded: does not bind
same,Effect on effector binding,KRAS effector binding,significantly reduces; also recorded: disrupt
same,Effect on proliferation of cancer cells,cancer cells,inhibit
same,Affinity for GTP-/GDP-bound NRAS,GTP-/GDP-bound NRAS,much weaker affinity; also recorded: does not bind
same,Effect on KRAS-mediated MAPK signaling / signal transduction through KRAS,[1],inhibits; also recorded: reduce
same,Affinity for GTP-KRAS,GTP-KRAS,sub micromolar affinity; also recorded: high affinity
same,Kd,KRAS,870 ± 180 nM
same,Affinity for GDP-KRAS (inactive KRAS),GDP-KRAS,much weaker affinity; also recorded: does not bind
